# Data: patent publication US9284362B2, “α/β-peptide mimics of Z-domain peptides” (Wisconsin Alumni Research Foundation, priority 2014, dated 2016)
# “Also recorded” adds a separate entry of the source. *1 amine or outer side, *2 acyl side, *3 side chain or, on linkers, in order; H or OH if unused. Where a SMILES comes first, the peptide text is derived from it. Where no end group is shown, it is not given here. [ ]: non-standard residue; d: D form. The star is where a group is joined. ξ: configuration not given here. ξ(4-Aminopyrrolidine-3-CO) = O=C(C1CNCC1N[*:1])[*:2]; NH(1S,2S-2-CONH2-cPent) = NC(=O)[C@H]1CCC[C@@H]1N*; ACPC(1S,2S) = N[C@H]1CCC[C@@H]1C(=O)*; X1 = O=C([C@H]1CCC[C@@H]1N[*:1])[*:2]; X2 = O=C([C@H]1CNC[C@@H]1N[*:1])[*:2]; Aib = CC(C)(N)C(=O)O
# Experiments:
# [1] = molecular target: T1, HER2 (Homo sapiens, UniProt P04626); conditions: cited from earlier work
# [2] = molecular target: T2, VEGF (Homo sapiens, UniProt P15692); assay: VEGF competition fluorescence polarization (FP) assay; assay type: binding; conditions: for binding to VEGF (in words): competition FP assay
# T2 construct: made in house
# T2 sequence (P15692 27-191 isoform P15692-4): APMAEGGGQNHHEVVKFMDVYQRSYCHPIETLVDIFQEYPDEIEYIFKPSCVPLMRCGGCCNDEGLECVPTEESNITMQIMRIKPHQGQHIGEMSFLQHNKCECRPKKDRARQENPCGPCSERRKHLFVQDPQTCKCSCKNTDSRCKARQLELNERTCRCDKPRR
# Experimental: Inhibitors of the VEGF/VEGFR interaction were evaluated using VEGF direct binding and competition fluorescence polarization (FP) assays, as previously described (Peterson, K. J. et al., Anal. Biochem. 2008, 378, 8-14), but using a modified tracer. […] DMSO stock solutions of α- and α/β-peptide inhibitors were prepared and concentration determined by UV absorbance at 280 nm. Extinction coefficients for α- and α/β-peptides were calculated based on the number of tryptophans (ε280=5690 M^−1 cm^−1), tyrosines (ε280=1280 M^−1 cm^−1), and cystines (ε280=120 M^−1 cm^−1) in each primary sequence (Gill, S. C, et al. Anal. Biochem. 1989, 182, 319-326). […] Each condition was run in duplicate in each assay. Inhibition constants (Ki) were determined from FP data using methods described for a competitive binding model with GraphPad Prism 4.0 (Peterson, K. J. et al., Anal. Biochem. 2008, 378, 8-14). Reported Ki values are representative values from multiple replicate assays.
# FP assays were only run once to test binding affinity.
# [3] = Half-life of Z-HER2 mimics (Table 16); assay type: in vitro ADME; conditions: conditions not given; read-out: half-life t1/2
# [4] = molecular target: T1, HER2; assay: Z-HER2 mimics binding, ELISA 3; conditions: read-out: ELISA 3 Ki calcd.
# [5] = molecular target: T3, TNFα (binding to immobilized TNFR1) (Homo sapiens, UniProt P01375); assay: TNFα/TNFR competition ELISA; conditions: Table 14; read-out: TNFa-TNFR ELISA IC50
# T3 construct: purchased R&D Systems 210-TA-020 (TNFα); 636-R1-025 (sTNF RI)
# T3 sequence (P01375 77-233 limits assumed): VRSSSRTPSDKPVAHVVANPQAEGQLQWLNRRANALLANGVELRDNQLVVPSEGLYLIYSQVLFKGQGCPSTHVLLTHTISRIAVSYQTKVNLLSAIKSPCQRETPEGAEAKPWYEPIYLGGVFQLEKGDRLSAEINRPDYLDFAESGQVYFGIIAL
# Experimental: The binding of α/β-peptides to TNFα to inhibit binding to TNFR was determined by competition ELISA. […] After immobilization, the plate was washed with PBS/0.05% TWEEN, blocked with 1% BSA in PBS for 2 hours, and then washed with PBS/0.05% TWEEN. Serial dilutions of soluble α/β-peptides in DMSO were prepared (final concentrations=0.04 nM-10 μM), and 10 μL of each of these solutions added to 240 μL of recombinant human TNFα (R&D Systems, 210-TA-020, final concentration=0.080 μg/mL) in PBS/0.05% TWEEN. The α/β-peptides were allowed to pre-incubate with TNFα for 3 hours and then 50 μL of each α/β-peptide/TNFα mixture was added to wells on the ELISA plate and incubated at room temperature for 1 hour. The plate was then washed with PBS/0.05% TWEEN and the presence of TNFα detected by adding 100 μL of a 1:500 dilution of Human TNFα Biotinylated Affinity Purified PAb (R&D Systems, BAF210) and incubating at room temperature for 1 hour. […] Plates were read during the time course of the reaction on a BioTek Synergy 2 microplate reader, reading A405. […] To compare the ability of each soluble α/β-peptide to inhibit the binding of TNFα to immobilized TNFR, IC50 values were calculated by fitting the ELISA absorbance data to a sigmoidal dose-response equation.
# [6] = Aqueous solubility (PBS)
# [7] = system: VEGF-induced proliferation of human umbilical vein endothelial cells (HUVECs); assay: HUVEC proliferation assay (VEGF165-induced, Click-iT EdU); assay type: cell-based; conditions: 50 μM peptide, 10 ng/mL VEGF165
# Experimental: Human umbilical vein endothelial cells (HUVECs) (Lonza, Basel, Switzerland, catalog no. CC2519) were cultured using Medium 199 (M199) (Mediatech, Herndon, Va., USA; 50-050-PB) supplemented with penicillin/steptomycin (HyClone-brand, Thermo Fisher Scientific, Herndon, Va., USA; SV30010) and EGM-2 (Lonza, CC4176) at 37° C. in 5% CO2. Cells were grown to 60-80% confluence and then serum-starved in M199 with 2% cosmic calf serum (CCS) (HyClone-brand, SH30087) overnight. […] Filter sterilized stock solutions of α- or α/β-peptide in PBS were made at a concentration of 200 μM, as determined by UV absorbance. Appropriate dilutions of α- or α/β-peptide were made with PBS, and the resulting solutions were premixed with recombinant human VEGF165 (R&D Systems, 293-VE-010) or recombinant human FGF basic (FGF-2) (R&D Systems, a wholly owned subsidiary of TECHNE Corporation, Minneapolis, Minn., USA; 233-FB-025) in M199/2% CCS and incubated at room temperature for 1 hour. […] Relative cell proliferation was quantified using the “Click-iT”-brand EdU Alexa Flour 488 Assay (Life Technologies, C10337). […] EdU incorporation was detected using Life Technologies' assay protocol. […] Images were analyzed using NIS-Elements AR Imaging Software (Nikon Instruments, Inc., Melville, N.Y., USA) to count the number of proliferating cells (EdU stained) and total number of cells (Hoechst stained). […]
compound,measurement,setting,value
82 (VENKFNKEMRNAYWEIALLPNLNNQQKRAFIRSLYDDPG; listed as Homo sapiens) [compound 82],reported Kd,[1],no blinding
"CC[C@H](C)[C@H](NC(=O)[C@H](C)NC(=O)[C@H]1CCC[C@@H]1NC(=O)[C@H](C)NC(=O)[C@H](CC(N)=O)NC(=O)[C@H](Cc1c[nH]cn1)NC(=O)[C@H]1CCC[C@@H]1NC(=O)[C@H](CCC(=O)O)NC(=O)[C@@H](N)CCCCN)C(=O)N[C@@H](CCC(=O)O)C(=O)N[C@H](C(=O)N[C@@H](C)C(=O)N[C@@H](CC(C)C)C(=O)N[C@@H](CC(C)C)C(=O)N1CCC[C@H]1C(=O)N[C@@H](CC(N)=O)C(=O)N[C@@H](CC(C)C)C(=O)N[C@@H](CC(N)=O)C(=O)N[C@@H](CC(=O)O)C(=O)N[C@@H](CCC(N)=O)C(=O)N[C@@H](CCC(N)=O)C(=O)N[C@@H](Cc1ccccc1)C(=O)N[C@@H](Cc1c[nH]cn1)C(=O)N[C@@H](C)C(=O)N[C@H]1CCC[C@@H]1C(=O)N[C@H](C(=O)N[C@@H](Cc1c[nH]c2ccccc12)C(=O)N[C@H]1CCC[C@@H]1C(=O)N[C@@H](CC(C)C)C(=O)N[C@H](C(=O)N[C@@H](CC(=O)O)C(=O)N[C@@H](CC(=O)O)C(=O)N1CCC[C@H]1C(=O)N[C@@H](CO)C(N)=O)[C@@H](C)CC)[C@@H](C)CC)[C@@H](C)CC [E4, KEXHNAXAIEIALLPNLNDQQFHAXIWXLIDDPS] (H-KE[X1]HNA[X1]AIEIALLPNLNDQQFHA[X1]IW[X1]LIDDPS-NH2)",Ki,"[2]; Table 5, early mimics, FP assay run once",> 50000 nM
CC[C@H](C)[C@H](NC(=O)C1CNCC1NC(=O)[C@H](CCCNC(=N)N)NC(=O)[C@@H](NC(=O)[C@H](CCCCN)NC(=O)C(C)(C)NC(=O)[C@H](CCCNC(=N)N)NC(=O)[C@H](CCCCN)NC(=O)[C@H](CCC(N)=O)NC(=O)C(C)(C)NC(=O)[C@H](CC(N)=O)NC(=O)[C@H](CC(N)=O)NC(=O)[C@H](CC(C)C)NC(=O)[C@H](CC(N)=O)NC(=O)[C@@H]1CCCN1C(=O)[C@H](CC(=O)O)NC(=O)[C@H](CC(C)C)NC(=O)[C@H](C)NC(=O)C(C)(C)NC(=O)[C@H](CCC(=O)O)NC(=O)[C@H](Cc1c[nH]c2ccccc12)NC(=O)[C@H](Cc1ccc(O)cc1)NC(=O)[C@H](CCCNC(=N)N)NC(=O)C1CNCC1NC(=O)[C@H](CCCNC(=N)N)NC(=O)[C@H](CCSC)NC(=O)[C@H]1CCC[C@@H]1NC(=O)[C@H](CCCCN)NC(=O)[C@H](CC(N)=O)NC(=O)[C@@H](N)Cc1ccccc1)[C@@H](C)CC)C(=O)N[C@@H](Cc1ccc(O)cc1)C(=O)N[C@@H](CC(=O)O)C(=O)N[C@@H](CC(=O)O)C(=O)N1CCC[C@H]1C(=O)N[C@@H](CO)C(N)=O (stereo partly shown) [compound 97] (H-FNK[X1]MR[ξ(4-Aminopyrrolidine-3-CO)]RYWE[Aib]ALDPNLNN[Aib]QKR[Aib]KIR[ξ(4-Aminopyrrolidine-3-CO)]IYDDPS-NH2),half-life,[3],4.33 h
same,Ki,[4],33 nM
"CC[C@H](C)[C@H](NC(=O)[C@H](CCCNC(=N)N)NC(=O)[C@H](Cc1c[nH]c2ccccc12)NC(=O)CNC(=O)[C@@H](N)CC(C)C)C(=O)NCC(=O)N[C@@H](CCC(=O)O)C(=O)NC(C)(C)C(=O)NCC(=O)N[C@H](C(=O)N[C@@H](CC(=O)O)C(=O)N1CCC[C@H]1C(=O)N[C@@H](CC(N)=O)C(=O)N[C@@H](CC(C)C)C(=O)N[C@@H](CC(N)=O)C(=O)N[C@@H](Cc1c[nH]cn1)C(=O)N[C@@H](CCC(N)=O)C(=O)N[C@@H](CCC(N)=O)C(=O)N[C@@H](Cc1ccccc1)C(=O)N[C@@H](CCCNC(=N)N)C(=O)NC(C)(C)C(=O)N[C@@H](CCCCN)C(=O)N[C@H](C(=O)N[C@@H](CC(C)C)C(=O)N[C@H]1CNC[C@@H]1C(=O)N[C@H](C(=O)N[C@@H](Cc1c[nH]c2ccccc12)C(=O)N[C@H]1CCC[C@@H]1C(N)=O)[C@@H](C)CC)[C@@H](C)CC)[C@@H](C)O [α/β-TNFα-14, LGWRIGEAGTDPNLNHQQFRAKILZIWX-NH2] (H-LGWRIGE[Aib]GTDPNLNHQQFR[Aib]KIL[X2]IW-{NH(1S,2S-2-CONH2-cPent)}; N-terminus assumed)",IC50,[5],1000 nM
"CC[C@H](C)[C@H](NC(=O)[C@H](CCCNC(=N)N)NC(=O)[C@H](Cc1c[nH]c2ccccc12)NC(=O)CNC(=O)[C@H](CC(C)C)NC(=O)[C@H]1CCC[C@@H]1N)C(=O)NCC(=O)N[C@@H](CCC(=O)O)C(=O)NC(C)(C)C(=O)NCC(=O)N[C@H](C(=O)N[C@@H](CC(=O)O)C(=O)N1CCC[C@H]1C(=O)N[C@@H](CC(N)=O)C(=O)N[C@@H](CC(C)C)C(=O)N[C@@H](CC(N)=O)C(=O)N[C@@H](Cc1c[nH]cn1)C(=O)N[C@@H](CCC(N)=O)C(=O)N[C@@H](CCC(N)=O)C(=O)N[C@@H](Cc1ccccc1)C(=O)N[C@@H](CCCNC(=N)N)C(=O)NC(C)(C)C(=O)N[C@@H](CCCCN)C(=O)N[C@H](C(=O)N[C@@H](CC(C)C)C(=O)N[C@H]1CNC[C@@H]1C(=O)N[C@H](C(=O)N[C@@H](Cc1c[nH]c2ccccc12)C(=O)N[C@H]1CCC[C@@H]1C(N)=O)[C@@H](C)CC)[C@@H](C)CC)[C@@H](C)O [α/β-TNFα-16, XLGWRIGEAGTDPNLNHQQFRAKILZIWX-NH2] ({ACPC(1S,2S)}-LGWRIGE[Aib]GTDPNLNHQQFR[Aib]KIL[X2]IW-{NH(1S,2S-2-CONH2-cPent)}; N-terminus assumed)",IC50,[5],510 nM
KEMHNAYAIEIALLPNLNDQQFHAFIWSLIDDPS-NH2 [Z-VEGF (7-40)],binding to VEGF (in words),[2],showed no binding
VDNKFNKEMHNAYAIEIALLPNLNDQQFHAFIWSLIDD-NH2 [Z-VEGF (1-38)],binding to VEGF (in words),[2],shows no binding
same,binding to VEGF (in words),[2]; listed as Z-VEGF(1-38),complete loss of binding
VDNKFNKEQHNARAIEAALDPNLNDQQFHAKIWSIIDD-NH2 [α-VEGF-1],solubility in PBS at 75 μM,[6],fully soluble
same,binding to VEGF (in words),[2],does not show binding; also recorded: did not recover binding
same,inhibition of VEGF-induced HUVEC proliferation (in words),[7],does not show any inhibition
VDNKFNKEXHNZRAIEAALDPNLNDQQFHAKIWZIIXD [α/β-VEGF-1-linear],binding to VEGF (in words),[2],lack of binding; also recorded: essentially no binding
